Assay results as given in patent US20250064945A1 (Arvinas Operations, Inc., priority 2021, published 2025).

Biological target: T1, BRM (Homo sapiens, UniProt P51531)
T1 construct: In-Cell Western Screen of BRM Degradation in SW1573 Cells; endogenous in cells; host or cells: SW1573 cells
Experiment: Western blot / In-Cell Western screen of BRM degradation in SW1573 cells
Type: cell-based
Conditions: overnight (18-20 hours) treatment; for Dmax: read-out: Dmax (%) (% degraded)
Protocol: Western Blot Screen of BRM Degradation in SW1573 Cells
(§1) To assess BRM degradation (Dmax and DC50) cells were seeded at 8000/well in 96-well black/clear-bottom plates in 180 μL DMEM growth media (containing 1% pen-strep, 1% HEPES and 10% FBS) per well. Plates were incubated overnight to allow adhesion. The next morning cells were treated by adding 20 μL of 10× target compound concentration (1% DMSO) to appropriate wells and returned to incubator for overnight (18-20 hours). The final DMSO concentration was 0.1%.
For lysing, adherent cells were washed once with 100 μL of DPBS. Cells were lysed in 40 μL of 1× RIPA+HALT protease inhibitor on ice for 10 minutes and frozen until use at −80° C. Thawed lysates were cleaned by filtration in 1.2 µm filter plates, or alternatively, were spun clean at 2300 g at 4° C. for 30 minutes.
For blotting, for each Western sample 30 μL of lysate was added to 10 μL of 4×LDS sample buffer, then denatured at 95° C. for 5 minutes in the thermal cycler and placed on ice. Samples were loaded on 4-15% Tris/Glycine gels and run for 25 minutes at 250 constant volts in 1×Tris/Glycine buffer with 4 μL of ladder and 12 μL of each sample loaded for each blot. Protein was transferred from gels to NC with BioRad Turbo dry-transfer unit with the Turbo/midi default program. All blots were rinsed with ddH2O and blocked for 1 hour at room temperature in 5% BSA in TBST (0.1%) on rocker. Blots were exposed to primary antibody in 5% BSA in TBST (0.1%) overnight at 4° C. on rocker (1:1000 for BRM (Cell Signaling Tech. cat #11966) and 1:2000 for alpha-tubulin (Cell Signaling Tech. cat #3873), a control protein. Blot was washed with TBST (0.1%) three times for 5 minutes on rocker at room temperature. Secondary antibody was added, and blots were incubated on a room temperature rocker for 1 hour with 1:18,000 anti-rabbit-HRP and/or anti-mouse-HRP in 5% BSA in TBST (0.1%). Blots were washed three times in TBST (0.1%) for 5 minutes at room temperature on the rocker. Signal was developed with Femto Maximum Sensitivity substrate for 4 minutes and blots read on ChemiDoc™.
In-Cell Western Screen of BRM Degradation in SW1573 Cells
as §1, with “DC50),” for “DC50)”, “10×” for “10× target”, “compound” for “compound concentration”
For processing, the plates were removed from incubator, the media was removed, and immediately 200 μL of cold (4° C.) DPBS was added to all wells. DPBS was then removed, and 50 μL of 4% paraformaldehyde (PFA) in DPBS (4° C.) was added to all wells, and the plates were incubated at room temperature for 20 minutes. PFA was then removed, and 200 μL of TBS-T containing 0.5% Triton X-100 was added to all wells, and the plates were incubated at room temperature for 30 minutes. TBS-T containing 0.5% Triton X-100 was then removed, and 50 μL of Li-Cor blocking solution was added, and the plates were incubated at room temperature for a minimum of one hour. The blocking solution was removed, and 50 μL of Li-Cor blocking solution containing primary antibody cocktail was added (1:1000 for BRM (Cell Signaling Tech. cat #11966) and 1:2000 for alpha-tubulin (Sigma cat #T6074), a control protein. Plates were then placed in cold room until the next day.
The next day plates were washed three times with TBS-T, 200 μL per well. Fifty […] of secondary antibody cocktail in LI-COR blocking solution (anti-rabbit_800 nm and anti-mouse_680 nm) was added to all wells (diluted 1:5000). The plates were incubated at room temperature for at least one hour while protected from light. The plates were washed twice with TBS-T, 200 μL per well. […]

T1 sequence (P51531 whole entry): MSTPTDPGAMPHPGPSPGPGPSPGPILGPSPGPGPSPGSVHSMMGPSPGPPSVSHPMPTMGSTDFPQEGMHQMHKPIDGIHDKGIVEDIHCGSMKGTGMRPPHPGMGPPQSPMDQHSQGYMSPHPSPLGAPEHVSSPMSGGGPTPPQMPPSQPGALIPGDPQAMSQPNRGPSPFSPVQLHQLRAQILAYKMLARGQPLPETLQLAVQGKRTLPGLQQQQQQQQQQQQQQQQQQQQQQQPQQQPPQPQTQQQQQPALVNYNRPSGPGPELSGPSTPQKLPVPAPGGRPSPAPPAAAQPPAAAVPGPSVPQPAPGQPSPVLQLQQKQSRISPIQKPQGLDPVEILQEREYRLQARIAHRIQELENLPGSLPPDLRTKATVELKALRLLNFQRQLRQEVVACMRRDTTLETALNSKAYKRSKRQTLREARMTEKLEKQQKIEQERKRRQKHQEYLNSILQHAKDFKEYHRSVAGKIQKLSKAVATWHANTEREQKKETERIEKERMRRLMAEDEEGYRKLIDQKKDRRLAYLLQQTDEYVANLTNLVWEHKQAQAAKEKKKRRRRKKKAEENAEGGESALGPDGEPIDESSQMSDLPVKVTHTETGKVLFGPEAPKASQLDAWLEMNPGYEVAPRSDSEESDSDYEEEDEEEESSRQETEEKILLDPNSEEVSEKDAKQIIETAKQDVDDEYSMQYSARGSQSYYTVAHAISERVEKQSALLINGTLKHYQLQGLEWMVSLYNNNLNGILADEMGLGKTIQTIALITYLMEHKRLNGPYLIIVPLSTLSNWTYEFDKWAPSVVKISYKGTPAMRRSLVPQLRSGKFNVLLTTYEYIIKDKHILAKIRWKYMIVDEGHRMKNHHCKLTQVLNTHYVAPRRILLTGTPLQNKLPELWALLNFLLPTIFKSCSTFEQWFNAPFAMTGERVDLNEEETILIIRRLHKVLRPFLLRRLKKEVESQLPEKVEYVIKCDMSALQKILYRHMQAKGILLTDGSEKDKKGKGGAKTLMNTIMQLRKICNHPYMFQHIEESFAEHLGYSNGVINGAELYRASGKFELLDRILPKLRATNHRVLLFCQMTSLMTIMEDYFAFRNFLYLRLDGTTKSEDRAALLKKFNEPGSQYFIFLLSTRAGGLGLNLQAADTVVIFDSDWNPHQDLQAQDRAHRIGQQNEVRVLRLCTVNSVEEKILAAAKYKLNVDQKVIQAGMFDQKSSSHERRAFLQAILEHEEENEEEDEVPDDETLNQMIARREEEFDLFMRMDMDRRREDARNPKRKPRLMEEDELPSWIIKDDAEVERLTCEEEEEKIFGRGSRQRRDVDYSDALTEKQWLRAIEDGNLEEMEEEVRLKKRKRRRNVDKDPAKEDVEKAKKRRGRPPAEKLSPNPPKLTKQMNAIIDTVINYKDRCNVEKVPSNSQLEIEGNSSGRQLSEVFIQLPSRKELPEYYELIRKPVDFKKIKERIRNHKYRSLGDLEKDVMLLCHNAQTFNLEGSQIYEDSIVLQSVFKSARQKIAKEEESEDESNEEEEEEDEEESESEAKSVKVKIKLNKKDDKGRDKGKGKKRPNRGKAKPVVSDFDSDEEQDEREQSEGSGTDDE

Compound	DC50 [nM]	Dmax [%]
Cc1ncsc1-c1ccc([C@H](C)NC(=O)[C@@H]2C[C@@H](O)CN2C(=O)[C@@H](c2cc(OCCN3CCN(CCOc4cc(N5CCN(c6cc(-c7ccccc7O)nnc6N)CC56COC6)ccn4)CC3)no2)C(C)C)cn1 [Compound 17, (2S,4R)-1-[(2R)-2-{3-[2-(4-{2-[(4-{8-[3-amino-6-(2-hydroxyphenyl)pyridazin-4-yl]-2-oxa-5,8-diazaspiro[3.5]nonan-5-yl}pyridin-2-yl)oxy]ethyl}piperazin-1-yl)ethoxy]-1,2-oxazol-5-yl}-3-methylbutanoyl]-4-hydroxy-N-[(1S)-1-[6-(4-methyl-1,3-thiazol-5-yl)pyridin-3-yl]ethyl]pyrrolidine-2-carboxamide]	2.5 to 10	> 75
CC(C)[C@@H](C(=O)N1C[C@H](O)C[C@H]1C(=O)N[C@@H](C)c1ccc(-c2ccnn2C)cc1)c1cc(OCCN2CCN(Cc3ccc(C/C=C/c4cn5cc(-c6ccccc6O)nc5nc4N)cc3)CC2)no1 [Compound 46, (2S,4R)-1-[(2R)-2-(3-{2-[4-({4-[(2E)-3-[7-amino-2-(2-hydroxyphenyl)imidazo[1,2-a]pyrimidin-6-yl]prop-2-en-1-yl]phenyl}methyl)piperazin-1-yl]ethoxy}-1,2-oxazol-5-yl)-3-methylbutanoyl]-4-hydroxy-N-[(1S)-1-[4-(1-methyl-1H-pyrazol-5-yl)phenyl]ethyl]pyrrolidine-2-carboxamide]	2.5 to 10	> 75
CC(C)[C@@H](C(=O)N1C[C@H](O)C[C@H]1C(=O)N[C@@H](C)c1ccc(-c2ccnn2C)cc1)c1cc(N2CCC(CN3CCC(O[C@H]4C[C@H](OC/C=C/c5cn6cc(-c7ccccc7O)nc6nc5N)C4)CC3)CC2)no1 [Compound 45, (2S,4R)-4-hydroxy-N-[(1S)-1-[4-(1-methyl-1H-pyrazol-5-yl)phenyl]ethyl]-1-[(2R)-3-methyl-2-{3-[4-({4-[(1r,3r)-3-{[(2E)-3-[7-amino-2-(2-hydroxyphenyl)imidazo[1,2-a]pyrimidin-6-yl]prop-2-en-1-yl]oxy}cyclobutoxy]piperidin-1-yl}methyl)piperidin-1-yl]-1,2-oxazol-5-yl}butanoyl]pyrrolidine-2-carboxamide]	< 2.5	> 75
Cc1ncsc1-c1ccc([C@H](C)NC(=O)[C@@H]2C[C@@H](O)CN2C(=O)[C@@H](c2cc(N3CCC(CN4CCC(O[C@H]5C[C@H](Oc6cc(N7CCN(c8cc(-c9ccccc9O)nnc8N)CC78COC8)ccn6)C5)CC4)CC3)no2)C(C)C)cc1 [Compound 4, (2S,4R)-4-hydroxy-N-[(1S)-1-[4-(4-methyl-1,3-thiazol-5-yl)phenyl]ethyl]-1-[(2R)-3-methyl-2-{3-[4-({4-[(1r,3r)-3-[(4-{8-[3-amino-6-(2-hydroxyphenyl)pyridazin-4-yl]-2-oxa-5,8-diazaspiro[3.5]nonan-5-yl}pyridin-2-yl)oxy]cyclobutoxy]piperidin-1-yl}methyl)piperidin-1-yl]-1,2-oxazol-5-yl}butanoyl]pyrrolidine-2-carboxamide]	< 2.5	> 75
Cc1ncsc1-c1ccc([C@H](C)NC(=O)[C@@H]2C[C@@H](O)CN2C(=O)[C@@H](c2cc(N3CCC(CN4CCC(O[C@H]5C[C@H](Oc6cc(CCc7cc(-c8ccccc8O)nnc7N)ccn6)C5)CC4)CC3)no2)C(C)C)cc1 [Compound 1, (2S,4R)-4-hydroxy-N-[(1S)-1-[4-(4-methyl-1,3-thiazol-5-yl)phenyl]ethyl]-1-[(2R)-3-methyl-2-{3-[4-({4-[(1r,3r)-3-[(4-{2-[3-amino-6-(2-hydroxyphenyl)pyridazin-4-yl]ethyl}pyridin-2-yl)oxy]cyclobutoxy]piperidin-1-yl}methyl)piperidin-1-yl]-1,2-oxazol-5-yl}butanoyl]pyrrolidine-2-carboxamide]	2.5 to 10	> 75
Cc1ncsc1-c1ccc([C@H](C)NC(=O)[C@@H]2C[C@@H](O)CN2C(=O)[C@@H](c2cc(N3CCC(CN4CCC(O[C@H]5C[C@H](N6CCC(CN7CC8(C7)CN(c7cc(-c9ccccc9O)nnc7N)CCO8)CC6)C5)CC4)CC3)no2)C(C)C)cc1 [Compound 11, (2S,4R)-4-hydroxy-N-[(1S)-1-[4-(4-methyl-1,3-thiazol-5-yl)phenyl]ethyl]-1-[(2R)-3-methyl-2-{3-[4-({4-[(1r,3r)-3-[4-({8-[3-amino-6-(2-hydroxyphenyl)pyridazin-4-yl]-5-oxa-2,8-diazaspiro[3.5]nonan-2-yl}methyl)piperidin-1-yl]cyclobutoxy]piperidin-1-yl}methyl)piperidin-1-yl]-1,2-oxazol-5-yl}butanoyl]pyrrolidine-2-carboxamide]	2.5 to 10	> 75
Cc1ncsc1-c1ccc([C@H](C)NC(=O)[C@@H]2C[C@@H](O)CN2C(=O)[C@@H](c2cc(N3CCC(CN4CCC5(CC4)CC(N4CCO[C@@H](CN6CCOC7(CCN(c8cc(-c9ccccc9O)nnc8N)CC7)C6)C4)C5)CC3)no2)C(C)C)cc1 [Compound 26, (2S,4R)-1-[(2R)-2-{3-[4-({2-[(2S)-2-({9-[3-amino-6-(2-hydroxyphenyl)pyridazin-4-yl]-1-oxa-4,9-diazaspiro[5.5]undecan-4-yl}methyl)morpholin-4-yl]-7-azaspiro[3.5]nonan-7-yl}methyl)piperidin-1-yl]-1,2-oxazol-5-yl}-3-methylbutanoyl]-4-hydroxy-N-[(1S)-1-[4-(4-methyl-1,3-thiazol-5-yl)phenyl]ethyl]pyrrolidine-2-carboxamide]	< 2.5	> 75
CC(C)[C@@H](C(=O)N1C[C@H](O)C[C@H]1C(=O)N[C@@H](C)c1ccc(-c2ccnn2C)cc1)c1cc(N2CCC(CN3CCC(O[C@H]4C[C@H](Cn5cc(-c6cn7cc(-c8ccccc8O)nc7nc6N)cn5)C4)CC3)CC2)no1 [Compound 42, (2S,4R)-4-hydroxy-N-[(1S)-1-[4-(1-methyl-1H-pyrazol-5-yl)phenyl]ethyl]-1-[(2R)-3-methyl-2-{3-[4-({4-[(1r,3r)-3-({4-[7-amino-2-(2-hydroxyphenyl)imidazo[1,2-a]pyrimidin-6-yl]-1H-pyrazol-1-yl}methyl)cyclobutoxy]piperidin-1-yl}methyl)piperidin-1-yl]-1,2-oxazol-5-yl}butanoyl]pyrrolidine-2-carboxamide]	< 2.5	> 75
Cc1ncsc1-c1ccc([C@H](C)NC(=O)[C@@H]2C[C@@H](O)CN2C(=O)[C@@H](c2cc(N3CCC(CN4CCC(O[C@H]5C[C@H](N6CCC(CC#Cc7cn8cc(-c9ccccc9O)nc8nc7N)CC6)C5)CC4)CC3)no2)C(C)C)cc1 [Compound 37, (2S,4R)-4-hydroxy-N-[(1S)-1-[4-(4-methyl-1,3-thiazol-5-yl)phenyl]ethyl]-1-[(2R)-3-methyl-2-{3-[4-({4-[(1r,3r)-3-(4-{3-[7-amino-2-(2-hydroxyphenyl)imidazo[1,2-a]pyrimidin-6-yl]prop-2-yn-1-yl}piperidin-1-yl)cyclobutoxy]piperidin-1-yl}methyl)piperidin-1-yl]-1,2-oxazol-5-yl}butanoyl]pyrrolidine-2-carboxamide]	< 2.5	> 75
